This is an account of results in patent publication US9975878B2, “Substituted triazine BMI-1 inhibitors” (PTC Therapeutics, Inc., priority 2013, dated 2018).

The assay deals with Bmi-1 protein. The assay can be described thus: Sandwich ELISA Assay: Bmi-1 protein level in HT-1080 cells treated with test compounds. Type of assay: cell-based. The method in brief:
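HT-1080 cells exposed to compounds (final DMSO 0.5%) for 40-48 h at 37° C, 5% CO2, then lysed. Bmi-1 quantified by sandwich ELISA (mouse anti-Bmi-1 capture, rabbit anti-Bmi-1 detection, HRP anti-rabbit, TMB), read at OD450 with OD570 reference, against recombinant GST-Bmi-1 standard curve (0-8000 pg/mL).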
A general note: ELISA stands for enzyme-linked immunosorbent assay.
What is called EC50 is the midpoint of the concentration-response curve. A lower EC50 goes with an effect from little substance. `CCc1nc2ccccc2n1-c1nc(Nc2ccc(OC(F)F)cc2)c[n+]([O-])n1` [Cpd 140, N-[4-(difluoromethoxy)phenyl]-3-(2-ethyl-1H-benzimidazol-1-yl)-1,2,4-triazin-5-amine 1-oxide] gave an EC50 of 100 to 3000 nM.
With `[O-][n+]1cc(Nc2ccc(C(F)(F)F)cc2)nc(-n2c(C3CC3)nc3ccccc32)n1` [Cpd 141, 3-(2-cyclopropyl-1H-benzimidazol-1-yl)-N-[4-(trifluoromethyl)phenyl]-1,2,4-triazin-5-amine 1-oxide] the figure was 10 to 100 nM; with `CCc1nc2ccccc2n1-c1nnc(N)c(Nc2ccc(C(F)(F)F)cc2)n1` [Cpd 142, 3-(2-ethyl-1H-benzimidazol-1-yl)-N^5-[4-(trifluoromethyl)phenyl]-1,2,4-triazine-5,6-diamine], 100 to 3000 nM.
With `Cc1nc2ccccc2n1-c1nnc(N)c(Nc2ccc(C(F)(F)F)cc2)n1` [Cpd 143, 3-(2-methyl-1H-benzimidazol-1-yl)-N^5-[4-(trifluoromethyl)phenyl]-1,2,4-triazine-5,6-diamine] the figure was 100 to 3000 nM; with `COc1ccc(Nc2cnnc(-n3c(C)nc4ccccc43)n2)cc1` [Cpd 144, N-(4-methoxyphenyl)-3-(2-methyl-1H-benzimidazol-1-yl)-1,2,4-triazin-5-amine], 1 to 10 nM; with `CCc1nc2ccccc2n1-c1nncc(Nc2ccc(OC)cc2)n1` [Cpd 145, 3-(2-ethyl-1H-benzimidazol-1-yl)-N-(4-methoxyphenyl)-1,2,4-triazin-5-amine], 1 to 10 nM.
With `COc1ccc(Nc2cnnc(-n3c(C4CC4)nc4ccccc43)n2)cc1` [Cpd 146, 3-(2-cyclopropyl-1H-benzimidazol-1-yl)-N-(4-methoxyphenyl)-1,2,4-triazin-5-amine] the figure was 1 to 10 nM.
Compound `COc1ccc(Nc2nc(N)nc(-n3c(C)nc4ccccc43)n2)cc1` [Cpd 147, N-(4-methoxyphenyl)-6-(2-methyl-1H-benzimidazol-1-yl)-1,3,5-triazine-2,4-diamine] had an EC50 of 1 to 10 nM.
The figure for `Cc1ccc(Nc2nc(N)nc(-n3c(C)nc4ccccc43)n2)cc1` [Cpd 148, 6-(2-methyl-1H-benzimidazol-1-yl)-N-(4-methylphenyl)-1,3,5-triazine-2,4-diamine] is 1 to 10 nM; for `Cc1cccc(Nc2nc(N)nc(-n3c(C)nc4ccccc43)n2)c1` [Cpd 149, 6-(2-methyl-1H-benzimidazol-1-yl)-N-(3-methylphenyl)-1,3,5-triazine-2,4-diamine] it is 100 to 3000 nM; for `Cc1nc2ccccc2n1-c1nc(N)nc(Nc2ccc(Cl)cc2)n1` [Cpd 150, N-(4-chlorophenyl)-6-(2-methyl-1H-benzimidazol-1-yl)-1,3,5-triazine-2,4-diamine] it is 10 to 100 nM.
Take `Cc1nc2ccccc2n1-c1nc(N)nc(Nc2ccc(C#N)cc2)n1` [Cpd 151, 4-{[4-amino-6-(2-methyl-1H-benzimidazol-1-yl)-1,3,5-triazin-2-yl]amino}benzonitrile]: the EC50 is 100 to 3000 nM.
The figure for `Cc1nc2ncc(Cl)cc2n1-c1nc(N)nc(Nc2ccc(OC(F)(F)F)cc2)n1` [Cpd 152, 6-(6-chloro-2-methyl-1H-imidazo[4,5-b]pyridin-1-yl)-N-[4-(trifluoromethoxy)phenyl]-1,3,5-triazine-2,4-diamine] is 100 to 3000 nM; for `COc1ccc(Nc2nc(N)nc(-n3c(C4CC4)nc4ccccc43)n2)cc1` [Cpd 153, 6-(2-cyclopropyl-1H-benzimidazol-1-yl)-N-(4-methoxyphenyl)-1,3,5-triazine-2,4-diamine] it is 1 to 10 nM; for `COc1cccc(Nc2nc(N)nc(-n3c(C4CC4)nc4ccccc43)n2)c1` [Cpd 154, 6-(2-cyclopropyl-1H-benzimidazol-1-yl)-N-(3-methoxyphenyl)-1,3,5-triazine-2,4-diamine] it is 100 to 3000 nM.
The compound `Cc1ccc(Nc2nc(N)nc(-n3c(C4CC4)nc4ccccc43)n2)cc1` [Cpd 155, 6-(2-cyclopropyl-1H-benzimidazol-1-yl)-N-(4-methylphenyl)-1,3,5-triazine-2,4-diamine] displayed an EC50 of 1 to 10 nM.
With `Cc1cccc(Nc2nc(N)nc(-n3c(C4CC4)nc4ccccc43)n2)c1` [Cpd 156, 6-(2-cyclopropyl-1H-benzimidazol-1-yl)-N-(3-methylphenyl)-1,3,5-triazine-2,4-diamine] the figure was 100 to 3000 nM; with `Nc1nc(Nc2ccc(Cl)cc2)nc(-n2c(C3CC3)nc3ccccc32)n1` [Cpd 157, N-(4-chlorophenyl)-6-(2-cyclopropyl-1H-benzimidazol-1-yl)-1,3,5-triazine-2,4-diamine], 10 to 100 nM.
The figure for `N#Cc1ccc(Nc2nc(N)nc(-n3c(C4CC4)nc4ccccc43)n2)cc1` [Cpd 158, 4-{[4-amino-6-(2-cyclopropyl-1H-benzimidazol-1-yl)-1,3,5-triazin-2-yl]amino}benzonitrile] is 100 to 3000 nM; for `CCc1nc2ccccc2n1-c1nc(N)nc(Nc2ccc(OC)cc2)n1` [Cpd 159, 6-(2-ethyl-1H-benzimidazol-1-yl)-N-(4-methoxyphenyl)-1,3,5-triazine-2,4-diamine] it is 1 to 10 nM.
The figure for `CCc1nc2ccccc2n1-c1nc(N)nc(Nc2ccc(C)cc2)n1` [Cpd 160, 6-(2-ethyl-1H-benzimidazol-1-yl)-N-(4-methylphenyl)-1,3,5-triazine-2,4-diamine] is 1 to 10 nM.
On to `CCc1nc2ccccc2n1-c1nc(N)nc(Nc2cccc(C)c2)n1` [Cpd 161, 6-(2-ethyl-1H-benzimidazol-1-yl)-N-(3-methylphenyl)-1,3,5-triazine-2,4-diamine], for which the EC50 was in the range of 100 to 3000 nM.
With `CCc1nc2ccccc2n1-c1nc(N)nc(Nc2ccc(Cl)cc2)n1` [Cpd 162, N-(4-chlorophenyl)-6-(2-ethyl-1H-benzimidazol-1-yl)-1,3,5-triazine-2,4-diamine] the figure was 10 to 100 nM; with `CCc1nc2ccccc2n1-c1nc(N)nc(Nc2ccc(C#N)cc2)n1` [Cpd 163, 4-{[4-amino-6-(2-ethyl-1H-benzimidazol-1-yl)-1,3,5-triazin-2-yl]amino}benzonitrile], 100 to 3000 nM.
The figure for `COc1ccc(Nc2nc(N)nc(-n3c(C)nc4ccc(F)cc43)n2)cc1` [Cpd 164, 6-(6-fluoro-2-methyl-1H-benzimidazol-1-yl)-N-(4-methoxyphenyl)-1,3,5-triazine-2,4-diamine] is 1 to 10 nM; for `Cc1ccc(Nc2nc(N)nc(-n3c(C)nc4ccc(F)cc43)n2)cc1` [Cpd 165, 6-(6-fluoro-2-methyl-1H-benzimidazol-1-yl)-N-(4-methylphenyl)-1,3,5-triazine-2,4-diamine] it is 1 to 10 nM.
With `Cc1nc2ccc(F)cc2n1-c1nc(N)nc(Nc2ccc(Cl)cc2)n1` [Cpd 166, N-(4-chlorophenyl)-6-(6-fluoro-2-methyl-1H-benzimidazol-1-yl)-1,3,5-triazine-2,4-diamine] the figure was 10 to 100 nM; with `Cc1nc2ccccc2n1-c1nc(N)nc(Nc2ccc(C(C)C)cc2)n1` [Cpd 167, 6-(2-methyl-1H-benzimidazol-1-yl)-N-[4-(propan-2-yl)phenyl]-1,3,5-triazine-2,4-diamine], 100 to 3000 nM; with `CCc1nc2ccc(F)cc2n1-c1nc(N)nc(Nc2ccc(OC)cc2)n1` [Cpd 168, 6-(2-ethyl-6-fluoro-1H-benzimidazol-1-yl)-N-(4-methoxyphenyl)-1,3,5-triazine-2,4-diamine], 1 to 10 nM.
As to `CCc1nc2ccc(F)cc2n1-c1nc(N)nc(Nc2ccc(C)cc2)n1` [Cpd 169, 6-(2-ethyl-6-fluoro-1H-benzimidazol-1-yl)-N-(4-methylphenyl)-1,3,5-triazine-2,4-diamine], the EC50 lay within 1 to 10 nM.
The figure for `CCc1nc2ccc(F)cc2n1-c1nc(N)nc(Nc2ccc(Cl)cc2)n1` [Cpd 170, N-(4-chlorophenyl)-6-(2-ethyl-6-fluoro-1H-benzimidazol-1-yl)-1,3,5-triazine-2,4-diamine] is 10 to 100 nM; for `CCc1nc2ccc(F)cc2n1-c1nc(N)nc(Nc2ccc(OC(F)(F)F)cc2)n1` [Cpd 171, 6-(2-ethyl-6-fluoro-1H-benzimidazol-1-yl)-N-[4-(trifluoromethoxy)phenyl]-1,3,5-triazine-2,4-diamine] it is 100 to 3000 nM.
`Cc1nc2ccc(F)cc2n1-c1nc(N)nc(Nc2ccc(OC(F)(F)F)cc2)n1` [Cpd 172, 6-(6-fluoro-2-methyl-1H-benzimidazol-1-yl)-N-[4-(trifluoromethoxy)phenyl]-1,3,5-triazine-2,4-diamine]: the EC50 is 100 to 3000 nM.
On to `CCc1nc2cc(F)ccc2n1-c1nc(N)nc(Nc2ccc(OC)cc2)n1` [Cpd 173, 6-(2-ethyl-5-fluoro-1H-benzimidazol-1-yl)-N-(4-methoxyphenyl)-1,3,5-triazine-2,4-diamine], for which the EC50 was in the range of 1 to 10 nM.
In turn, `CCc1nc2cc(F)ccc2n1-c1nc(N)nc(Nc2ccc(C)cc2)n1` [Cpd 174, 6-(2-ethyl-5-fluoro-1H-benzimidazol-1-yl)-N-(4-methylphenyl)-1,3,5-triazine-2,4-diamine] registered an EC50 of 10 to 100 nM.
With `CCc1nc2cc(F)ccc2n1-c1nc(N)nc(Nc2ccc(Cl)cc2)n1` [Cpd 175, N-(4-chlorophenyl)-6-(2-ethyl-5-fluoro-1H-benzimidazol-1-yl)-1,3,5-triazine-2,4-diamine] the figure was 100 to 3000 nM; with `COc1ccc(Nc2nc(N)nc(-n3c(C4CC4)nc4ccc(F)cc43)n2)cc1` [Cpd 176, 6-(2-cyclopropyl-6-fluoro-1H-benzimidazol-1-yl)-N-(4-methoxyphenyl)-1,3,5-triazine-2,4-diamine], 10 to 100 nM.
Compound `Cc1ccc(Nc2nc(N)nc(-n3c(C4CC4)nc4ccc(F)cc43)n2)cc1` [Cpd 177, 6-(2-cyclopropyl-6-fluoro-1H-benzimidazol-1-yl)-N-(4-methylphenyl)-1,3,5-triazine-2,4-diamine] had an EC50 of 1 to 10 nM.
With `Nc1nc(Nc2ccc(Cl)cc2)nc(-n2c(C3CC3)nc3ccc(F)cc32)n1` [Cpd 178, N-(4-chlorophenyl)-6-(2-cyclopropyl-6-fluoro-1H-benzimidazol-1-yl)-1,3,5-triazine-2,4-diamine] the figure was 10 to 100 nM.
